For 11 molecules, IC50 results are on record in patent US20260014146A1, “CDK2 INHIBITORS AND METHODS OF USING THE SAME” (Cedilla Therapeutics, Inc., priority 2022, published 2026).

The structures appear in SMILES notation. A value given as a limit tells only on which side of the number the result lay.

Test [1] concerns Kuramochi cells labeled with mApple-H2B. Description: IncuCyte cell proliferation assay. The class given is cell-based. Particulars: Kuramochi RB-WT, cell count 0 to 72 hours; method calls it GI50. The protocol:
IncuCyte® assay was used to measure the effect of disclosed compounds on cell proliferation. Fluorescent microscopy images of cells were taken immediately after compound treatment and 72 hours later. Image analysis software was used to obtain cell counts as a function of compound concentration. Kuramochi cells labeled with mApple-H2B were seeded on 384-well assay-ready plates. Plates were placed in an IncuCyte® (Sartorius) and scanned at 0 and 72 hours. IncuCyte® software was used to count the number of fluorescent nuclei in each well. The fold change in cell count from 0 to 72 hours in wells treated with increasing compounds concentrations (10 pts, 1/2 log dilution, 20 μM top concentration) was normalized to DMSO control wells. The normalized cell counts were fit with dose response curves and a GI50 was calculated.

Test [2] addresses CDK2/Cyclin E1 (Homo sapiens (Human), UniProt P24941). Put plainly: Caliper LabChip EZ Reader mobility shift assay. The class given is biochemical. The conditions noted are these: 2.5 nM CDK2/Cyclin E1 (14-475), 100 μM ATP, 1.5 μM fluorescent peptide; read-out: Caliper Assay (CDK2/CCNE1): IC50. The method, then: Inhibition of CDK2/Cyclin E1 activity in the presence of compounds of the present disclosure was evaluated using a Caliper LabChip® EZ Reader mobility shift assay. In the assay, activated CDK2/Cyclin E1 catalyzes the phosphorylation of a fluorescently tagged peptide 5-FAM-QSPKKG-CONH2 (PerkinElmer, FL Peptide 18) which induces a difference in capillary electrophoresis mobility. The peptide substrate and product were measured, and the conversion ratio was used to determine the inhibition (as % activity and IC50 values) of CDK2/Cyclin E1. Reactions contained 50 mM HEPES pH 7.5, 10 mM MgCl2, 1 mM EDTA, 2 mM DTT, 0.01% Brij35, 0.5 mg/mL BSA, 0.1% DMSO, 2.5 nM CDK2/Cyclin E1 (14-475), 100 μM ATP, and 1.5 μM fluorescent peptide substrate.
Dose titrations of inhibitors in 100% DMSO were combined with 3.25 nM CDK2/Cyclin E1 (14-475) and 130 μM of ATP in reaction buffer. The mixtures were incubated for 30 minutes before the addition of fluorescent peptide substrate to initiate the kinase reaction. The final conditions were 2.5 nM CDK2/Cyclin E1 (14-475), 100 μM ATP, and 1.5 μM fluorescent peptide. The reactions were stopped after 100 minutes with the addition of EDTA (6 mM final EDTA concentration). The stopped reactions were analyzed on a Caliper LabChip® EZ Reader II. The conversion ratios were normalized to yield % activity, plotted against compound concentration, and fit to a four-parameter equation to determine the IC50 for each compound.

Test [3] concerns Kuramochi cells. Description: BrdU cell proliferation assay. In kind it is cell-based. The conditions noted are these: 96 h, developed on day 4, read-out: BrdU - KURAMOCHI.1: IC50. The method, then:
A BrdU assay was used as a measure of proliferation based on the DNA replication process of proliferating cells. BrdU, a pyrimidine analog, is added to the cell culture and incorporated into the DNA of proliferating cells. The presence of the BrdU analog was then measured through a colorimetric ELISA. After fixation and permeabilization of cells, peroxidase-conjugated antibody recognizing BrdU is added and allowed to incubate, followed by thorough washing to remove unbound antibody. In order to quantify the amount of bound antibody, peroxidase substrate is added and produces a color that can be measured at 450 nm.
On day −1, Kuramochi cells (Sekisui XenoTech JCRB0098) were seeded at 2,000 cells/well in columns 2-12 of a 96 well plate (Corning, CLS3596) in 150 uL media and allowed to adhere overnight at 37 degree with 5% CO2. In order to assess specificity of the compounds, Kuramochi RB^KO cells were also plated and treated, as RB^KO cells were not expected to show a proliferative response to CCNE/CDK specific inhibitors.
On day 0, the source plate was prepared by adding 10 mM compounds and performing 3-fold serial dilutions for a 4-point dose response of each compound. Using a multichannel pipette, 2 μL of the contents of the source plate were stamped into an intermediate plate with 500 μL of RPMI 1640 Media, GlutaMAX Supplement (Life Technologies. 61870127) in each well of a Nunc 96 DeepWell™ plate, non-treated 96 DeepWell plate, 2 mL/well, sterile, natural. 60/cs (Sigma Z717274) and mixed thoroughly. 50 uL from row A of this intermediate plate were added to rows A-H of one plate of previously seeded Kuramochi cells, and each subsequent row of the intermediate plate was added to a full plate of cells.
On day 4, the plates were developed using the BrdU ELISA Cell Proliferation Assay according to manufacturer's instructions (Roche, 11647229001). Briefly, BrdU was diluted 1:100 in Gibco®. Opti-MEM® and 20 μL/well was added, shaken for 10 minutes at 350 rpm, and then returned to the incubator for 1 hour. Following incubation, the medium was discarded, and the cells were fixed by adding 200 μL of Fix/Denature solution. The anti-BrdU peroxidase antibody was diluted 1:1000 in OptiMEM, added at 100 μL/well, and incubated while shaking (350 rpm) for one hour. Three washes with PBS were performed to remove any unbound antibody, followed by the addition of 100 μL of substrate solution to each well. […] was then added to halt the reaction, and plates were read out using an Envision spectrophotometer (Perkin Elmer) set to read 450 nm absorbance. Background absorbance values from empty wells were subtracted from all samples and then normalized to DMSO treated wells.

For the molecule `CNC(=O)[C@@H](NC(=O)[C@@H]1CN(C(=O)c2cnn(Cc3ccccc3)c2)CC12CN(c1nnn[nH]1)C2)[C@@H](C)OCC1CCCCC1` [Compound I-1, (S)-6-(1-Benzyl-1H-pyrazole-4-carbonyl)-N-((2S,3R)-3-(cyclohexylmethoxy)-1-(methylamino)-1-oxobutan-2-yl)-2-(1H-tetrazol-5-yl)-2,6-diazaspiro[3.4]octane-8-carboxamide], the values for the IC50 in test [1], in test [2] and in test [3] were more than 20 µM, more than 10 µM and more than 10 µM, respectively.
Take `CNC(=O)[C@@H](NC(=O)[C@@H]1CN(C(=O)c2cnn(Cc3ccccc3)c2)CC12CN(c1ncco1)C2)[C@@H](C)OCC1CCCCC1` [Compound I-2, (S)-6-(1-benzyl-1H-pyrazole-4-carbonyl)-N-((2S,3R)-3-(cyclohexylmethoxy)-1-(methylamino)-1-oxobutan-2-yl)-2-(oxazol-2-yl)-2,6-diazaspiro[3.4]octane-8-carboxamide]: the IC50 was more than 20 µM in test [1], 0.1 to 1 µM in test [2] and more than 10 µM in test [3].
For the molecule `C[C@@H](OCC1CCCCC1)[C@H](NC(=O)[C@@H]1CN(c2cccc3cn[nH]c23)CC12CN(C(=O)[C@H]1CC1(C)C)C2)C(=O)N1CCCCC1` [Compound I-11, (S)-N-((2S,3R)-3-(cyclohexylmethoxy)-1-oxo-1-(piperidin-1-yl)butan-2-yl)-2-((S)-2,2-dimethylcyclopropanecarbonyl)-6-(1H-indazol-7-yl)-2,6-diazaspiro[3.4]octane-8-carboxamide], the IC50 in test [1] and in test [3] was 0.5 to 5 µM in each case.
`C[C@@H](OCC1CCCCC1)[C@H](NC(=O)[C@@H]1CN(c2nccc3cn[nH]c23)CC12CN(C(=O)[C@H]1CC1(C)C)C2)C(=O)N1CCCCC1` [Compound I-12, (S)-N-((2S,3R)-3-(cyclohexylmethoxy)-1-oxo-1-(piperidin-1-yl)butan-2-yl)-2-((S)-2,2-dimethylcyclopropane-1-carbonyl)-6-(1H-pyrazolo[3,4-c]pyridin-7-yl)-2,6-diazaspiro[3.4]octane-8-carboxamide 2,2,2-trifluoroacetate]: the IC50 in test [2] and in test [3] was more than 10 µM throughout.
For `C[C@@H](OCC12CCC(CC1)OC2)C(NC(=O)[C@@H]1CN(c2ncnc3ncsc23)CC12CN(C(=O)[C@H]1CC1(C)C)C2)C(=O)N1CCC(C(F)(F)F)CC1` (stereo partly drawn) [Compound I-30, (S)-N-((2S,3R)-3-((2-oxabicyclo[2.2.2]octan-4-yl)methoxy)-1-oxo-1-(4-(trifluoromethyl)piperidin-1-yl)butan-2-yl)-2-((S)-2,2-dimethylcyclopropane-1-carbonyl)-6-(thiazolo[4,5-d]pyrimidin-7-yl)-2,6-diazaspiro[3.4]octane-8-carboxamide], the IC50 in test [1] was in the range of 0.5 to 5 µM; in test [2], 0.01 to 0.1 µM.
For `CNC(=O)C(NC(=O)[C@@H]1CN(C(=O)c2cncs2)CC12CN(c1nc(C(F)(F)F)co1)C2)[C@@H](C)OCC12CCC(CC1)OC2` (stereo partly drawn) [Compound I-32, (S)-N-((2S,3R)-3-((2-oxabicyclo[2.2.2]octan-4-yl)methoxy)-1-(methylamino)-1-oxobutan-2-yl)-6-(thiazole-5-carbonyl)-2-(4-(trifluoromethyl)oxazol-2-yl)-2,6-diazaspiro[3.4]octane-8-carboxamide], in that order: more than 20 µM and more than 10 µM.
For the molecule `C[C@@H](OCC12CCC(CC1)OC2)[C@H](NC(=O)[C@@H]1CN(c2cc(F)cc3ncsc23)CC12CN(C(=O)[C@H]1CC1(C)C)C2)C(=O)N1CCC(c2ccncc2)CC1` [Compound I-33, N-((2S,3R)-3-(2-oxabicyclo[2.2.2]octan-4-ylmethoxy)-1-oxo-1-(4-(pyridin-4-yl)piperidin-1-yl)butan-2-yl)-2-((S)-2,2-dimethylcyclopropanecarbonyl)-6-(5-fluorobenzo[d]thiazol-7-yl)-2,6-diazaspiro[3.4]octane-8-carboxamide], the IC50 was 0.5 to 5 µM in test [1] and not above 0.01 µM in test [2].
As to `C[C@@H](OCC1(CO)CC=CCC1)C(NC(=O)[C@@H]1CN(c2ncnc3ncsc23)CC12CN(C(=O)[C@H]1CC1(C)C)C2)C(=O)N1CCC(OC(F)(F)F)CC1` (stereo partly drawn) [Compound I-35, (8S)-2-((S)-2,2-dimethylcyclopropane-1-carbonyl)-N-((2S,3R)-3-((1-(hydroxymethyl)cyclohex-3-en-1-yl)methoxy)-1-oxo-1-(4-(trifluoromethoxy)piperidin-1-yl)butan-2-yl)-6-(thiazolo[4,5-d]pyrimidin-7-yl)-2,6-diazaspiro[3.4]octane-8-carboxamide], the IC50 in test [1] is more than 20 µM; in test [2], 0.01 to 0.1 µM.
Taken in the same sequence, the figures for `C[C@@H](OCC1(CO)CC=CCC1)[C@H](NC(=O)[C@@H]1CN(c2ncnc3ncsc23)CC12CN(C(=O)[C@H]1CC1(C)C)C2)C(=O)N1CCC(C(F)(F)F)CC1` (stereo partly drawn) [Compound I-36, (8S)-2-((S)-2,2-dimethylcyclopropane-1-carbonyl)-N-((2S,3R)-3-((1-(hydroxymethyl)cyclohex-3-en-1-yl)methoxy)-1-oxo-1-(4-(trifluoromethyl)piperidin-1-yl)butan-2-yl)-6-(thiazolo[4,5-d]pyrimidin-7-yl)-2,6-diazaspiro[3.4]octane-8-carboxamide] were more than 20 µM and 0.01 to 0.1 µM.
Taken in the same sequence, the figures for `C[C@@H](OCC1(CO)CC=CCC1)[C@H](NC(=O)[C@@H]1CN(c2ncnc3ncsc23)CC12CN(C(=O)[C@H]1CC1(C)C)C2)C(=O)N1CC2(CCOCC2)C1` (stereo partly drawn) [Compound I-37, (8S)-2-((S)-2,2-dimethylcyclopropane-1-carbonyl)-N-((2S,3R)-3-((1-(hydroxymethyl)cyclohex-3-en-1-yl)methoxy)-1-oxo-1-(7-oxa-2-azaspiro[3.5]nonan-2-yl)butan-2-yl)-6-(thiazolo[4,5-d]pyrimidin-7-yl)-2,6-diazaspiro[3.4]octane-8-carboxamide] were more than 20 µM and 0.1 to 1 µM.
Regarding `COC[C@H]1CCCN(C(=O)[C@@H](NC(=O)[C@H]2CN(c3nc(C(F)(F)F)cs3)CC23CN(C(=O)[C@H]2CC2(C)C)C3)[C@@H](C)OCC23CCC(CC2)OC3)C1` [I-17 2nd, N-((2S,3R)-3-(2-oxabicyclo[2.2.2]octan-4-ylmethoxy)-1-((S)-3-(methoxymethyl)piperidin-1-yl)-1-oxobutan-2-yl)-2-((S)-2,2-dimethylcyclopropanecarbonyl)-6-(4-(trifluoromethyl)thiazol-2-yl)-2,6-diazaspiro[3.4]octane-8-carboxamide], the IC50 is more than 20 µM in test [1] and more than 10 µM in test [2].
